The compounds below were run on gastric acid secretion (assay: Gastric acid secretion activity test using pyloric ligation in rats (Shay rat method)). Details: male SD rats, 20 mg/kg injected into the duodenal region, 4 hours, result given in words only.
Type: in vivo
Experimental: Gastric acid secretion activity test using pyloric ligation in rats (Shay rat method)
Pyloric ligation was conducted based on the method of Shay et al. [Gastroenterology, 5, 43 (1945)]. Male rats of SD strain were fasted for 24 hours; their abdomens were sectioned during anesthesia under ether. The duodenal and pyloric regions were exposed and the latter was ligated. A solution of a test compound (10 mg/ml) prepared by use of 1.5w parts of dimethylacetamide, 68.5% parts of polyethyleneglycol (PEG-400) and 30% parts of physiological saline solution, was injected into the duodenal region for the dose to be 20 mg/kg by use of a 1-ml syringe and an injection needle (26G). After injection of the test compound, the abdominal region was sutured. The animals were allowed to a stand for 4 hours without feeding food and water and then sacrified with carbon dioxide gas. The stomach was excised and gastric juice was gathered. The gastric juice sample was centrifuged (4° C., 2500 rpm, 15 minutes). The amount of the supernatant was measured to be as the gastric secretion. The acidity of the gastric juice was determined by the amount (ml) of 0.01 N sodium hydroxide solution required for titration of 0.1 ml of the supernatant to pH 7.0 by use of-an auto-titrating apparatus. The value of gastric acid secretion was calculated from the value of gastric secretion and the acidity of gastric juice. The inhibiting rate was obtained from the values of gastric acid secretion of the control group and of the administered group.

SMILES	inhibiting rate of gastric acid secretion
C=C(C)Cn1c(C)c(C)c2cnnc(OCc3ccc(F)cc3)c21 [Example 26, 7-(4-Fluorobenzyloxy)-2,3-dimethyl-1-(2-methyl-2-propenyl)pyrrolo[2,3-d]pyridazine]	excellent activity
CC=CCn1c(C)c(C)c2cnnc(OCc3cccnc3)c21 [Example 32, 1-(2-Butenyl)-2,3-dimethyl-7-(3-pyridylmethyloxy)pyrrolo[2,3-d]pyridazine]	excellent activity
C/C=C/Cn1c(CC)c(C)c2cnnc(OCc3ccc(F)cc3)c21 [Example 33, 1-(2-Butenyl)-2-ethyl-7-(4-fluorobenzyloxy)-3-methylpyrrolo[2,3-d]pyridazine]	excellent activity
Cc1c(C)n(CC2CCCCC2)c2c(OCc3ccc(F)cc3)nncc12 [Example 37, 1-Cyclohexylmethyl-7-(4-fluorobenzyloxy)-2,3-dimethylpyrrolo[2,3-d]pyridazine]	excellent activity
CC=CCn1c(C)c(C)c2cnnc(OCc3c(F)cccc3Cl)c21 [Example 40, 1-(2-Butenyl)-7-(2-chloro-6-fluorobenzyloxy)-2,3-dimethylpyrrolo[2,3-d]pyridazine]	excellent activity
Cc1c(C)n(CC=C(Cl)Cl)c2c(OCc3ccccc3)nncc12 [Example 41, 7-Benzyloxy-1-(3,3-dichloro-2-propenyl)-2,3-dimethylpyrrolo[2,3-d]pyridazine]	excellent activity
C#CCn1c(C)c(C)c2cnnc(OCc3ccccc3)c21 [Example 42, 7-Benzyloxy-2,3-dimethyl-1-(2-propynyl)pyrrolo[2,3-d]pyridazine]	excellent activity
CC=CCn1c(C)c(C)c2cnnc(CCc3ccc(F)cc3)c21 [Example 62, 1-(2-Butenyl)-7-(4-fluorophenethyl)-2,3-dimethylpyrrolo[2,3-d]pyridazine]	excellent activity

Each compound was assayed on Helicobacter pylori strains 9470, 9472 and 9474 (assay: Antibacterial activity against Helicobacter pylori). Details: strains 9470, 9472 and 9474, 37° C., 3 days, slightly aerobic; result given in words only.
Type: cell-based
Experimental: Antibacterial activity against Helicobacter pylori The antibacterial activity of the compounds of the present invention were evaluated by measuring the minimum inhibitory concentration values (MIC) of the present compounds against Helicobacter pylori strains 9470, 9472 and 9474. These strains of Helicobacter pylori were incubated for 4 days on a plate medium. The medium was prepared by dissolving brain heart infusion agar (Product of DIFCO) in a defined amount of distilled water, by sterilization in an autoclave, injecting horse blood (Product of Nihon Seibutsu Zairyo Co.) into each plate for the medium to contain 7% of the blood and by solidifying. Under slightly aerobic conditions, Helicobacter pylori cultivated at 37° C. for 4 days was suspended in a physiological saline solution for its inocular size to be about 10^8 CFU/ml. The suspension was diluted 100 times, and about 10 μl of the diluted suspension was inoculated on a medium for MIC determination. The medium for MIC determination used had the same compounds as those for preculture. […] In a similar way to the preculture, Helicobacter pylori was cultivated at 37° C. for 3 days under slightly aerobic conditions. […] The minimum concentration which gave no bacterial growth was regarded as MIC of the compound of the present invention.

SMILES	minimum inhibitory concentration (MIC) against Helicobacter pylori
CC(C)=CCn1c(C)c(C)c2cnnc(OCc3ccccc3)c21 [Example 2, 7-Benzyloxy-2,3-dimethyl-1-(3-methyl-2-butenyl)pyrrolo[2,3-d]pyridazine]	excellent antibacterial activity
Cc1c(C)n(C/C=C/c2ccccc2)c2c(OCc3ccccc3)nncc12 [Example 6, 7-Benzyloxy-2,3-dimethyl-1-(3-phenyl-2-propenyl)pyrrolo[2,3-d]pyridazine]	excellent antibacterial activity
C=CCn1c(C)c(C)c2cnnc(OCc3cccc(F)c3)c21 [Example 8, 7-(3-Fluorobenzyloxy)-2,3-dimethyl-1-(2-propenyl)pyrrolo[2,3-d]pyridazine]	excellent antibacterial activity
C=CCn1c(C)c(C)c2cnnc(OCc3ccccc3F)c21 [Example 10, 7-(2-Fluorobenzyloxy)-2,3-dimethyl-1-(2-propenyl)nvrrolo[2,3-d]pyridazine]	excellent antibacterial activity
C=Cn1c(C)c(C)c2cnnc(OCc3ccccc3)c21 [Example 13, 7-Benzyloxy-2,3-dimethyl-1-vinylpyrrolo[2,3-d]pyridazine]	excellent antibacterial activity
Cc1c(C)n(CC(F)(F)F)c2c(OCc3ccccc3)nncc12 [Example 15, 7-Benzyloxy-2,3-dimethyl-1-(2,2,2-trifluoroethyl)pyrrolo[2,3-d]pyridazine]	excellent antibacterial activity
Cc1c(C)n(CCF)c2c(OCc3ccccc3)nncc12 [Example 18, 7-Benzyloxy-1-(2-fluoroethyl)-2,3-dimethylpyrrolo[2,3-d]pyridazine]	excellent antibacterial activity
Cc1c(C)n(CCCF)c2c(OCc3ccccc3)nncc12 [Example 19, 7-Benzyloxy-1-(3-fluoropropyl)-2,3-dimethylpyrrolo[2,3-d]pyridazine]	excellent antibacterial activity
Cc1c(C)n(CC(F)F)c2c(OCc3ccccc3)nncc12 [Example 20, 7-Benzyloxy-1-(2,2-difluoroethyl)-2,3-dimethylpyrrolo[2,3-d]pyridazine]	excellent antibacterial activity
Cc1c(C)n(C2CCCCC2)c2c(OCc3ccccc3)nncc12 [Example 23, 7-Benzyloxy-1-cyclohexyl-2,3-dimethylpyrrolo[2,3-d]pyridazine]	excellent antibacterial activity
Cc1c(C)n(C/C=C/c2ccccc2)c2c(OCc3ccc(F)cc3)nncc12 [Example 24, 7-(4-Fluorobenzyloxy)-2,3-dimethyl-1-(3-phenyl-2-propenyl)pyrrolo[2,3-d]pyridazine]	excellent antibacterial activity
C=CCn1c(C)c(C)c2cnnc(OCc3ccc(C(F)(F)F)cc3)c21 [Example 25, 2,3-Dimethyl-1-(2-propenyl)-7-(4-trifluoromethylbenzyloxy)pyrrolo[2,3-d]pyridazine]	excellent antibacterial activity
C=CCn1c(C)c(CC)c2cnnc(OCc3ccccc3)c21 [Example 27, 7-Benzyloxy-3-ethyl-2-methyl-1-(2-propenyl)-6pyrrolo[2,3-d]pyridazine]	excellent antibacterial activity
C/C=C\Cn1c(C)c(C)c2cnnc(OCc3ccc(F)cc3)c21 [Example 29, 1-(2-Butenyl)-7-(4-fluorobenzyloxy)-2,3-dimethylpyrrolo[2,3-d]pyridazine]	excellent antibacterial activity
C=CCn1c(C)c(C)c2cnnc(SCc3ccc(F)cc3)c21 [Example 34, 7-(4-Fluorobenzylthio)-2,3-dimethyl-1--(2-propenyl)ipyrrolo[2,3-d]pyridazine]	excellent antibacterial activity
C=C=Cn1c(C)c(C)c2cnnc(OCc3ccccc3)c21 [Example 45, 7-Benzyloxy-2,3-dimethyl-1-(propane-1,2-dienyl)pyrrolo[2,3-d]pyridazine]	excellent antibacterial activity
CC=CCn1c(C)c(C)c2cnnc(SCc3ccc(F)cc3)c21 [Example 50, 1-(2-Butenyl)-7-(4-fluorobenylthio)-2,3-dimethylpyrrolo[2,3-d]pyridazine]	excellent antibacterial activity
CC=CCn1c(C)c(C)c2cnnc(SCc3ccc(F)cc3F)c21 [Example 51, 1-(2-Butenyl)-7-(2,4-difluorobenzylthio)-2,3-dimethylpyrrolo[2,3-d]pyridazine]	excellent antibacterial activity
CC=CCn1c(C)c(C)c2cnnc(SCc3c(F)cccc3Cl)c21 [Example 52, 1-(2-Butenyl)-7-(2-chloro-6-fluorobenzylthio)-2,3-dimethylpyrrolo[2,3-d]pyridazine]	excellent antibacterial activity
CC=CCn1c(C)c(CC)c2cnnc(OCc3ccc(F)cc3)c21 [Example 56, 1-(2-Butenyl)-3-ethyl-7-(4-fluorobenzyloxy)-2-methylpyrrolo[2,3-d]pyridazine]	excellent antibacterial activity

— patent US6063782A, “Pyrrolopyridazine derivatives” (Sankyo Company, Limited, priority 1994, dated 2000)
